This note sets out measurements from US20220315554A1, “COMPOUNDS COMPRISING A […] LIGAND AND USE THEREOF” (priority 2019, published 2022).

Experiment [1] addresses T1, FAP-expressing human WI-38 fibroblasts (Homo sapiens, UniProt Q12884).
T1 construct: FAP-expressing human WI-38 fibroblasts (ECACC) were cultured in EMEM; host or cells: WI-38 human fibroblasts
T1 sequence (Q12884 1-760): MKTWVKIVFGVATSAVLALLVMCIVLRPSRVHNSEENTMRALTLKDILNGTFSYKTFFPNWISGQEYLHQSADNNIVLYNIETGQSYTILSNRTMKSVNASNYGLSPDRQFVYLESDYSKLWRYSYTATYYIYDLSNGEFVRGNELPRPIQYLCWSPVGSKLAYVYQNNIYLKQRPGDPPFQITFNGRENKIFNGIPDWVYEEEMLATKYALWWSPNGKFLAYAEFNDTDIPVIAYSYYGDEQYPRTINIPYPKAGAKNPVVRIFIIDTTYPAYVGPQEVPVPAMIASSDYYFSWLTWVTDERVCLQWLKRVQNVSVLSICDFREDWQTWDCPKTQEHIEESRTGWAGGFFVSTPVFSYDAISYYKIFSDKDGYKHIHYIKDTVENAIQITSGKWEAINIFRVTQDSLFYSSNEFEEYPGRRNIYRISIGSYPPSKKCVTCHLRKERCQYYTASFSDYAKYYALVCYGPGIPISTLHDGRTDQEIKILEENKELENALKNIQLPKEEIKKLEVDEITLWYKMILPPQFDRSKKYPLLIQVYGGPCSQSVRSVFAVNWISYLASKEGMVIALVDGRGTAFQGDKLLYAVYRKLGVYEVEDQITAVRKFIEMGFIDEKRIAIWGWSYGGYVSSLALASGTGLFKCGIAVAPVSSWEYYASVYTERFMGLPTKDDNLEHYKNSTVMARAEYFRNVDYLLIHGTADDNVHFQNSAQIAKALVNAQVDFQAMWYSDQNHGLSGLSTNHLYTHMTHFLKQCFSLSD
The experiment is described as follows: Competitive FACS binding assay. As to conditions: pIC50 Category (FACS), competition with 3 nM Cy5-labeled compound, WI-38 fibroblasts, 4° C., 1 hour. The method, then: Cells were analyzed in an Attune NxT flow cytometer. […]

The target in experiment [2] is T2, Human recombinant FAP (Homo sapiens, UniProt Q12884).
T2 sequence (Q12884 1-760): T1 sequence (Q12884 1-760)
Kind of experiment: FRET-based FAP protease activity assay. The class given is biochemical. The arrangement: purchased R&D systems 3715-SE. The settings on record: pIC50 Category (Activity), recombinant human FAP, FRET substrate, 37° C.

Numbered stars: 1 amine (or outer) side, 2 acyl side, 3 side chain; on linkers, the order of the positions; unused ones are H or OH. Bridge positions count the residues as written; N and C are the ends. Square brackets hold non-standard residues; d marks the D form. Peptide text beside a SMILES is read from it. * marks the point of attachment. X3 = NC(=O)[C@H](CCCCNC(=O)CN1CCN(CC(=O)O)CCN(CC(=O)O)CCN(CC(=O)O)CC1)NC(=O)CCC(=O)NCCCOCCOCCOCCCN*; X47 = O=C(O)CN1CCN(CC(=O)O)CCN(CC(=O)NCCCCCNC(=O)CCC(=O)NCCCOCCOCCOCCCN*)CCN(CC(=O)O)CC1; mXylylene = c1cc(C[*:1])cc(C[*:2])c1; X44 = O=C(CC1CCN([*:1])CC1)[*:2]; 4Pal = N[C@@H](Cc1ccncc1)C(=O)O; 4Amb = NCc1ccc(C(=O)O)cc1; Hexanoyl = CCCCCC(=O)*; βAla = NCCC(=O)O

The IC50 is the point on the concentration scale where inhibition reaches its midpoint. Regarding `CCCCCC(=O)N[C@H]1CSCc2cccc(c2)CSC[C@@H](C(=O)N[C@@H](CC(=O)O)C(=O)N[C@@H](Cc2c[nH]cn2)C(=O)N[C@@H](Cc2ccncc2)C(=O)N[C@H](CCCNC(=N)N)C(=O)NCCCOCCOCCOCCCNC(=O)CCC(=O)N[C@@H](CCCCNC(=O)CN2CCN(CC(=O)O)CCN(CC(=O)O)CCN(CC(=O)O)CC2)C(N)=O)NC(=O)[C@H](Cc2ccccc2)NC(=O)[C@H](CCC(=O)O)NC(=O)[C@H]([C@@H](C)O)NC(=O)[C@@H]2CCCN2C(=O)[C@@H]2CCCN2C1=O` [3BP-3277, Hex-[Cys(3MeBn)-Pro-Pro-Thr-Glu-Phe-Cys]-Asp-His-Ppa-arg-Ttds-Lys(DOTA)-NH2] (Hexanoyl-CPPTEFCDH[4Pal][dR]-X3; linker 1-7 via mXylylene), the IC50 in experiment [1] and in experiment [2] was below 0.01 µM in each case.
On to `CCCCCC(=O)N[C@H]1CSCc2cccc(c2)CSC[C@@H](C(=O)N[C@@H](CC(=O)O)C(=O)N[C@@H](CCCNC(=N)N)C(=O)O)NC(=O)[C@H](Cc2ccccc2)NC(=O)[C@H](CCC(=O)O)NC(=O)[C@H]([C@@H](C)O)NC(=O)[C@@H]2CCCN2C(=O)[C@@H]2CCCN2C1=O` [3BP-3299, Hex-[Cys(3MeBn)-Pro-Pro-Thr-Glu-Phe-Cys]-Asp-Arg-NH2] (Hexanoyl-CPPTEFCDR-OH; linker 1-7 via mXylylene), for which the IC50 in experiment [1] and in experiment [2] was below 0.01 µM in each case.
With `CCCCCC(=O)N[C@H]1CSCc2cccc(c2)CSC[C@@H](C(=O)N[C@@H](CC(=O)O)C(=O)N2CCC(CC(=O)N[C@@H](CCCNC(=N)N)C(N)=O)CC2)NC(=O)[C@H](Cc2ccccc2)NC(=O)[C@H](CCC(=O)O)NC(=O)[C@H]([C@@H](C)O)NC(=O)[C@@H]2CCCN2C(=O)[C@@H]2CCCN2C1=O` [3BP-3302, Hex-[Cys(3MeBn)-Pro-Pro-Thr-Glu-Phe-Cys]-Asp-Cmp-Arg-NH2] (Hexanoyl-CPPTEFCD[X44]R-NH2; linker 1-7 via mXylylene), the IC50 in experiment [1] and in experiment [2] was below 0.01 µM each time.
For `CCCCCC(=O)N[C@H]1CSCc2cccc(c2)CSC[C@@H](C(=O)NCc2ccc(C(=O)N[C@@H](CCCNC(=N)N)C(N)=O)cc2)NC(=O)[C@H](Cc2ccccc2)NC(=O)[C@H](CCC(=O)O)NC(=O)[C@H]([C@@H](C)O)NC(=O)[C@@H]2CCCN2C(=O)[C@@H]2CCCN2C1=O` [3BP-3303, Hex-[Cys(3MeBn)-Pro-Pro-Thr-Glu-Phe-Cys]-Pamb-Arg-NH2] (Hexanoyl-CPPTEFC[4Amb]R-NH2; linker 1-7 via mXylylene), the IC50 in experiment [1] is 0.01 to 0.0794 µM; in experiment [2] it was below 0.01 µM.
Turning to `CCCCCC(=O)N[C@H]1CSCc2cccc(c2)CSC[C@@H](C(N)=O)NC(=O)[C@H](Cc2ccccc2)NC(=O)[C@H](CCC(=O)O)NC(=O)[C@H]([C@@H](C)O)NC(=O)[C@@H]2CCCN2C(=O)CNC1=O` [3BP-3345, Hex-[Cys(3MeBn)-Gly-Pro-Thr-Glu-Phe-Cys]-NH2] (Hexanoyl-CGPTEFC-NH2; linker 1-7 via mXylylene), the IC50 is 0.1 to 0.794 µM in experiment [1] and 0.01 to 0.0794 µM in experiment [2].
On the same counts, the results for `CCCCCC(=O)N[C@H]1CSCc2cccc(c2)CSC[C@@H](C(N)=O)NC(=O)[C@H](Cc2ccccc2)NC(=O)[C@H](CCC(=O)O)NC(=O)[C@H]([C@@H](C)O)NC(=O)[C@@H]2CCCN2C(=O)[C@H](C)NC1=O` [3BP-3346, Hex-[Cys(3MeBn)-Ala-Pro-Thr-Glu-Phe-Cys]-NH2] (Hexanoyl-CAPTEFC-NH2; linker 1-7 via mXylylene) are above 1 µM and 0.1 to 0.794 µM.
On the same counts, the results for `CCCCCC(=O)N[C@H]1CSCc2cccc(c2)CSC[C@@H](C(N)=O)NC(=O)[C@H](Cc2ccccc2)NC(=O)[C@H](C)NC(=O)[C@H]([C@@H](C)O)NC(=O)[C@@H]2CCCN2C(=O)[C@@H]2CCCN2C1=O` [3BP-3348, Hex-[Cys(3MeBn)-Pro-Pro-Thr-Ala-Phe-Cys]-NH2] (Hexanoyl-CPPTAFC-NH2; linker 1-7 via mXylylene) are above 1 µM and above 1 µM.
On the same counts, the results for `CCCCCC(=O)N[C@H]1CSCc2cccc(c2)CSC[C@@H](C(N)=O)NC(=O)[C@H](C)NC(=O)[C@H](CCC(=O)O)NC(=O)[C@H]([C@@H](C)O)NC(=O)[C@@H]2CCCN2C(=O)[C@@H]2CCCN2C1=O` [3BP-3350, Hex-[Cys(3MeBn)-Pro-Pro-Thr-Glu-Ala-Cys]-NH2] (Hexanoyl-CPPTEAC-NH2; linker 1-7 via mXylylene) are above 1 µM and 0.1 to 0.794 µM.
Turning to `CCCCCC(=O)N[C@H]1CSCc2cccc(c2)CSC[C@@H](C(N)=O)NC(=O)[C@H](Cc2ccccc2)NC(=O)[C@H](CCC(=O)O)NC(=O)[C@H](C)NC(=O)[C@@H]2CCCN2C(=O)[C@@H]2CCCN2C1=O` [3BP-3354, Hex-[Cys(3MeBn)-Pro-Pro-Ala-Glu-Phe-Cys]-NH2] (Hexanoyl-CPPAEFC-NH2; linker 1-7 via mXylylene), the IC50 in experiment [1] and in experiment [2] was above 1 µM each time.
As for `CCCCCC(=O)N[C@H]1CSCc2cccc(c2)CSC[C@@H](C(=O)O)NC(=O)[C@H](Cc2ccccc2)NC(=O)[C@H](CCC(=O)O)NC(=O)[C@H]([C@@H](C)O)NC(=O)[C@@H]2CCCN2C(=O)[C@@H]2CCCN2C1=O` [3BP-3370, Hex-[Cys(3MeBn)-Pro-Pro-Thr-Glu-Phe-Cys]-OH] (Hexanoyl-CPPTEFC-OH; linker 1-7 via mXylylene), the IC50 in experiment [1] and in experiment [2] was 0.01 to 0.0794 µM each time.
Regarding `CCCCCC(=O)N[C@H]1CSCc2cccc(c2)CSC[C@@H](C(=O)NCCC(=O)O)NC(=O)[C@H](Cc2ccccc2)NC(=O)[C@H](CCC(=O)O)NC(=O)[C@H]([C@@H](C)O)NC(=O)[C@@H]2CCCN2C(=O)[C@@H]2CCCN2C1=O` [3BP-3371, Hex-[Cys(3MeBn)-Pro-Pro-Thr-Glu-Phe-Cys]-Bal-OH] (Hexanoyl-CPPTEFC[βAla]-OH; linker 1-7 via mXylylene), the IC50 was below 0.01 µM in experiment [1] and 0.01 to 0.0794 µM in experiment [2].
On the same counts, the results for `C[C@@H](O)[C@@H]1NC(=O)[C@@H]2CCCN2C(=O)[C@@H]2CCCN2C(=O)[C@@H](NC(=O)[C@H](CCCCNC(N)=O)NC(=O)CCC(=O)NCCCOCCOCCOCCCNC(=O)CN2CCN(CC(=O)O)CCN(CC(=O)O)CCN(CC(=O)O)CC2)CSCc2cccc(c2)CSC[C@@H](C(=O)NCCC(=O)O)NC(=O)[C@H](Cc2ccccc2)NC(=O)[C@H](CCC(N)=O)NC1=O` [3BP-3399, DOTA-Ttds-Hci-[Cys(3MeBn)-Pro-Pro-Thr-Gln-Phe-Cys]-Bal-OH] are above 1 µM and above 1 µM.
In the same order, the values of `CCCCCC[C@H](NC(=O)CCC(=O)NCCCOCCOCCOCCCNC(=O)CN1CCN(CC(=O)O)CCN(CC(=O)O)CCN(CC(=O)O)CC1)C(=O)N[C@H]1CSCc2cccc(c2)CSC[C@@H](C(=O)NCCC(=O)O)NC(=O)[C@H](Cc2ccccc2)NC(=O)[C@H](CCC(N)=O)NC(=O)[C@H]([C@@H](C)O)NC(=O)[C@@H]2CCCN2C(=O)[C@@H]2CCCN2C1=O` [3BP-3400, DOTA-Ttds-Hgl-[Cys(3MeBn)-Pro-Pro-Thr-Gln-Phe-Cys]-Bal-OH] are above 1 µM and 0.01 to 0.0794 µM.
In the same order, the values of `CCCCCC(=O)N[C@H]1CSCc2cccc(c2)CSC[C@@H](C(=O)N[C@@H](CC(=O)O)C(=O)NCCCOCCOCCOCCCNC(=O)CCC(=O)NCCCCCNC(=O)CN2CCN(CC(=O)O)CCN(CC(=O)O)CCN(CC(=O)O)CC2)NC(=O)[C@H](Cc2ccccc2)NC(=O)[C@H](CCC(N)=O)NC(=O)[C@H]([C@@H](C)O)NC(=O)[C@@H]2CCCN2C(=O)[C@@H]2CCCN2C1=O` [3BP-3404, Hex-[Cys(3MeBn)-Pro-Pro-Thr-Gln-Phe-Cys]-Asp-Ttds-Ape(DOTA)] (Hexanoyl-CPPTQFCD-X47; linker 1-7 via mXylylene) are below 0.01 µM and below 0.01 µM.
